The subject of data set [1] is Senktide-induced bilateral ovariectomy rats. The experiment in a line: Tail skin temperature in a Senktide-induced bilateral ovariectomy rat model. The note with it: OVX SD rats, oral 30 mg/kg, 30 min before s.c. Senktide, tail skin temperature over 75 min. In kind it is in vivo. An excerpt: Pharmacodynamic Study of the Test Compounds on Tail Skin Temperature in a Senktide-Induced Bilateral Ovariectomy Rat Model
To evaluate the effect of the test compounds on tail skin temperature in Senktide-induced bilateral ovariectomy rats.
2.3. Experimental Animals • Ten-Week-old female bilateral ovariectomy SD rats were purchased from Beijing Vital River Laboratory Animal Technology Co., Ltd. The animals were housed in a SPF grade animal facility with 5 SD rats per cage. The cages, bedding, feed and water were disinfected at high temperatures before use. All animals had free access to food and water.
Ten-week-old female SD rats were subjected to bilateral ovariectomy and recovered for two weeks, and then randomly divided into negative control group, model group and drug administration group (8 rats per group), based on body weight. The probe was attached to the dorsal surface of the rat tail with medical tape, 1-2 cm away from the tailhead of the rat.
The vehicle was administered orally to the negative control group and the model group, and different test compounds were administered orally to each drug administration group at a dose of 30 mg/kg and a volume of 10 mL/kg.
Thirty minutes after the oral administration of the vehicle or test compound, the negative control group was injected subcutaneously with normal saline (at a volume of 5 mL/kg); the model group and each drug administration group were injected subcutaneously with 0.2 mg/mL of Senktide (at a volume of 5 mL/kg) to induce the hot flashes-like symptom.
The change in tail skin temperature (ΔTST) at each time point relative to time point 0 was calculated, the ΔTST-time curve of the change in tail skin temperature was plotted, and the area under curve (AUCΔTST) was calculated. ΔTST=TSTn−TST0, TST0 is the tail skin temperature at 0 minute before the subcutaneous injection of normal saline or Senktide; TSTn is the tail skin temperature at the n minute after the subcutaneous injection.
AUCΔTST=Σ(ΔTSTn+ΔTSTn+5)*5/2

The target in data set [2] is T1, NK3 receptors (Homo sapiens, UniProt P29371).
T1 construct: expressed in transfected cells
T1 sequence (P29371 1-465): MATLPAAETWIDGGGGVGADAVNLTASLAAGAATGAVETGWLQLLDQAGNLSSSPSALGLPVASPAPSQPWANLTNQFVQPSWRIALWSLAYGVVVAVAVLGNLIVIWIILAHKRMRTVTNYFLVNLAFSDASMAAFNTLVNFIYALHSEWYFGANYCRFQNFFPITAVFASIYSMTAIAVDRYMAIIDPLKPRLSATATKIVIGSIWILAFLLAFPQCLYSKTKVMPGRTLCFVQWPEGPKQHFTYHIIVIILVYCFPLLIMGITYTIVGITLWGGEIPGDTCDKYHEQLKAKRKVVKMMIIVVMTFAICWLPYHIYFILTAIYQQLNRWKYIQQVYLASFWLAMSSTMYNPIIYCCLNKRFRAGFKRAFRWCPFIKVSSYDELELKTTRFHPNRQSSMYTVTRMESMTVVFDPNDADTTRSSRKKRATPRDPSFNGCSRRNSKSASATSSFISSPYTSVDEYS
The experiment in a line: Calcium ion fluidity (FLIPR) in cells with stable expression of NK3 receptors. In kind it is cell-based. The note with it: calcium signal, antagonist mode, read-out: NK3R IC50 (nM) FLIPR. An excerpt:
Determination of the Effect of the Compounds of the Present Invention on Calcium Ion Fluidity in Cells with Stable Expression of NK3 Receptors
Experimental objective: The objective of this test example was to determine the inhibitory effect of the compounds on NK3 receptors.
Experimental Methods: • 1. […] Probenecid and BSA were freshly added on the day of the experiment. The buffers for the experiments included dye buffer, compound dilution buffer and the like. • 2. […] The culture medium was discarded, and 20 μL of dye was added. The cells were incubated at 37° C. in the dark for 60 min, and then the calcium signal was read. • 4. The antagonist was prepared before the experiments. […] The plate was transferred to FLIPR, and 6× concentration of the agonist compound was added at 5 μL/well. The values were read and the data were saved by using FLIPR. The total assay volume was 30 μL, comprising 20 μL/well of dye buffer, 5 μL/well of 5× concentration of the experimental compound, and 5 μL/well of 6× concentration of the agonist compound.
The calcium signal value was read by FLIPR. The output of each sampling time point in the experiment was calculated as the ratio of the signals at wavelengths of 340/510 nm to 380/510 nm. The maximum minus minimum value was calculated from the ratio signal curve. The IC50 value of the compound was calculated by fitting the data of inhibition rate percentage and ten concentrations to the parametric nonlinear logistic equation by using GraphPad prism.

Data set [3] can be described thus: Pharmacokinetic assay in SD rats (plasma and brain tissue). Format: in vivo. The note with it: rat, po, male SD rats, p.o. 5 mg/kg; for AUC(0-t): read-out: Area under curve AUC0-t; for Tmax: read-out: Peak time tmax; for Cmax: read-out: Plasma concentration Cmax. On the procedure:
Test Example 4. Pharmacokinetic Assays in SD Rats
SD rats were used as test animals. The in vivo (plasma and brain tissue) pharmacokinetic behavior of the compounds of the present invention was investigated by oral administration of the compound in rats at a dose of 5 mg/kg.
Male SD rats (21 animals per group), purchased from Shanghai JieSiJie Laboratory Animal Co., Ltd., under the Animal Production License Number of SCXK (Shanghai) 2013-0006 No. 311620400001794.
The experimental drug was dissolved in 0.5% CMC-Na (1% Tween 80) by sonication to formulate a clear solution or a homogeneous suspension.
After an overnight fast, male SD rats (21 animals per group) were administered p.o. with the experimental drug at an administration dose of 5 mg/kg and the administration volume of 10 mL/kg.
Rats were sacrificed with CO2 at 0, 0.5, 1, 2, 4, 8 and 24 hours before and after the drug administration. 8 mL of blood was collected by cardiac puncture, placed in EDTA-K2 tubes, and centrifuged at 4° C. at 6,000 rpm for 6 min. Plasma was separated and stored at −80° C. The whole brain tissue was dissected and weighed, and then placed in a 2 mL centrifuge tube and stored at −80° C.
2.6 Sample Processing: • 1) 160 μL of acetonitrile was added to 40 μL of plasma sample for precipitation. After mixing, the sample was centrifuged at 3500×g for 5-20 minutes. • 2) 90 μL of acetonitrile containing internal standard (100 ng/mL) was added to 30 μL of plasma or brain homogenate sample for precipitation. After mixing, the sample was centrifuged at 13,000 rpm for 8 minutes. • 3) 70 μL of water was added to 70 μL of treated supernatant, and mixed by vortex for 10 minutes. Then 20 μL of the sample was analyzed by LC/MS/MS to determine the concentration of the compound to be tested. The LC/MS/MS instrument for analysis was AB Sciex API 4000 Qtrap.
2.7 Liquid Chromatography Analysis: • Liquid chromatography conditions: Shimadzu LC-20AD pump • Chromatographic column: Agilent ZORBAX XDB-C18 (50×2.1 mm, 3.5 μm) Mobile phase: Eluent A was 0.1% formic acid in water, and Eluent B was acetonitrile. • Flow rate: 0.4 mL/min • Elution time: 0-4.0 minutes, the eluate was as follows:
The major pharmacokinetic parameters were calculated by using WinNonlin 6.1, and the results of the pharmacokinetic experiments in rats were shown in Table 3 below: […]

Data set [4] addresses T1, NK3 receptors. The experiment in a line: Antagonism of IP1 in HEK293 cells with stable expression of NK3. Format: cell-based. Particulars: agonist Senktide 3 nM, read-out: NK3R IC50 (nM) IP1. On the procedure: Determination of the Effect of the Compounds of the Present Invention on IP1 in HEK293 Cells with Stable Expression of NK3
The objective of this test example was to determine the antagonism effect of the compounds on the activity of HEK293-NK3 cells.
3. Experimental Methods: • 1. […] HEK293-NK3 cell line was cultured in complete medium and seeded in the coated dishes at 37° C., 5% CO2 until 70%˜90% confluence. • 3. […] The cells were digested and resuspended in 1× Stimulation Buffer (IP-ONE Gq Kit), seeded into the 384-well cell culture plate (which contained the compound to be tested) at 5,000 cells/well/5 μL by using Multidrop Combi. The culture plate was centrifuged at 300 rpm at room temperature for 60 seconds, and then incubated at 37° C., 5% CO2 for 15 minutes. • 5. The cell culture plate was taken out from the CO2 incubator. […] The culture plate was centrifuged at 300 rpm at room temperature for 60 seconds, and then incubated at 37° C., 5% CO2 for 2 hours. • 6. The cell culture plate was taken out from the CO2 incubator. 5 μL of IP1 d2 reagent and then 5 μL of IP1 Tb Cryptate Antibody reagent were added by using Multidrop Combi. The culture plate was centrifuged at room temperature at 300 rpm for 60 seconds, and left to stand at room temperature for 1 hour. • 7. The plate was read by using EnVision Multilabel Reader, and data were collected at the same time.
The fluorescence signal ratio (Ratio) was read and collected by EnVision Multilabel Reader. According to the readings of the Low control (DMSO control) and High control (p)ositive compound) experimental groups, the antagonism percentage data were calculated as {% antagonism=(Ratio sample−Ratio low control)/(Ratio high control−Ratio low control)×100}.

Structures are written as SMILES. Read-outs that look alike come from different tables or passages of the source.

For orientation: IC50 means the concentration at which inhibition is half-maximal. The compound `Cc1nsc(-c2nnc3n2CCN(C(=O)c2ccc(F)cc2)[C@@H]3C)n1` [Fezolinetant] came in with an AUCΔTST in data set [1] of 116.7 ± 50.6 °C · min. For the same compound, the IC50 in data set [2] came to 904 nM.
One may read the Tmax as the time at which the peak concentration occurs. Turning to `C[C@@H]1c2nnc(-c3nc4cc(F)c(F)cc4s3)n2CCN1C(=O)c1ccc(F)cc1` [Example 17, (R)-(3-(5,6-Difluorobenzo[d]thiazol-2-yl)-8-methyl-5,6-dihydro-[1,2,4]triazolo[4,3-a]pyrazin-7(8H)-yl)(4-fluorophenyl)methanone], the AUC(0-t) was 3230 ng·h/mL in data set [3] (Brain) and 46700 ng·h/mL in data set [3] (Plasma). For the same compound, the figures for the Tmax in data set [3] (Brain) and in data set [3] (Plasma) were 4 h and 6 h, respectively. The figures for the Cmax in data set [3] (Brain) and in data set [3] (Plasma) were 1120 ng/mL and 2300 ng/mL, respectively. Also, the IC50 was 15.2 nM in data set [4] and 6.81 nM in data set [2].
Usually MRT stands for a mean duration of stay, worked out from the concentration-time curve. `C[C@@H]1c2nnc(-c3nc(Cl)ns3)n2CCN1C(=O)c1ccc(Cl)cc1` [Example 57, (R)-(3-(3-Chloro-1,2,4-thiadiazol-5-yl)-8-methyl-5,6-dihydro-[1,2,4]triazolo[4,3-a]pyrazin-7(8H)-yl)(4-chlorophenyl)methanone]: in data set [3] (Brain), the AUC(0-t) is 2340 ng·h/mL, the Tmax turned out to be 1 h and the Cmax came out at 670 ng/mL. Moreover, in data set [3] (Plasma), the AUC(0-t) worked out at 7130 ng·h/mL, the Tmax was 2 h and the Cmax came out at 930 ng/mL. Also, in data set [3] (Plasma, read-out: Half life t1/2 (converted)), the half-life was 3.2 h. Also, the MRT in data set [3] (Plasma, read-out: Mean residence time MRT) amounted to 4.8 h. Also, the IC50 in data set [4] turned out to be 28.9 nM. Besides, the IC50 in data set [2] came to 61 nM.
Take `[2H]c1cc(C(=O)N2CCn3c(-c4nc5ccc(F)cc5s4)nnc3[C@H]2C)ccc1Cl` [Example 101, (R)-(4-Chlorophenyl-3-d)(3-(6-fluorobenzo[d]thiazol-2-yl)-8-methyl-5,6-dihydro-[1,2,4]triazolo[4,3-a]pyrazin-7(8H)-yl)methanone]: the 50% inhibitory concentration (IC50) is 61 nM in data set [4] and 86.7 nM in data set [2].
`Cc1ccc2nc(-c3nnc4n3CCN(C(=O)c3ccc(F)cc3)[C@@H]4C)sc2c1` [Example 24, (R)-(4-Fluorophenyl)(8-methyl-3-(6-methylbenzo[d]thiazol-2-yl)-5,6-dihydro-[1,2,4]triazolo[4,3-a]pyrazin-7(8H)-yl)methanone]: the IC50 in data set [4] was 49.5 nM; in data set [2], 45.6 nM.
For the compound `C[C@@H]1c2nnc(-c3nc4ccc(Cl)cc4s3)n2CCN1C(=O)c1ccc(F)cc1` [Example 19, (R)-(3-(6-Chlorobenzo[d]thiazol-2-yl)-8-methyl-5,6-dihydro-[1,2,4]triazolo[4,3-a]pyrazin-7(8H)-yl)(4-fluorophenyl)methanone], the half-inhibitory concentration (IC50) amounted to 15.6 nM in data set [4] and 10.9 nM in data set [2].
Taken in the same sequence, the figures for `[2H]c1cc(C(=O)N2CCn3c(-c4nc5ccc(Cl)cc5s4)nnc3[C@H]2C)ccc1Cl` [Example 102, (R)-(3-(6-Chlorobenzo[d]thiazol-2-yl)-8-methyl-5,6-dihydro-[1,2,4]triazolo[4,3-a]pyrazin-7(8H)-yl)(4-chlorophenyl-3-d)methanone] were 16.4 nM and 32.5 nM.
Turning to `[2H]c1cc(C(=O)N2CCn3c(-c4nc5cc(F)c(F)cc5s4)nnc3[C@H]2C)ccc1Cl` [Example 99, (R)-(4-Chlorophenyl-3-d)(3-(5,6-difluorobenzo[d]thiazol-2-yl)-8-methyl-5,6-dihydro-[1,2,4]triazolo[4,3-a]pyrazin-7(8H)-yl)methanone], the IC50 in data set [4] amounted to 23.3 nM; in data set [2], 56.2 nM.

These data come from patent publication US20230271969A1, “NITROGEN-CONTAINING FUSED RING DERIVATIVE INHIBITOR, PREPARATION METHOD THEREFOR AND USE THEREOF” (Shanghai Hansoh Biomedical Co., Ltd., priority 2020, published 2023).
